The structures appear in SMILES notation. ≈ marks a conversion by molar mass, not a printed value. Read-outs that look alike come from different tables or passages of the source.

One assay deals with A. baumannii PBP2 (Acinetobacter baumannii, UniProt D0C8Z9). Description: Bocillin-FL competition binding via gel filtration, A. baumannii PBP2. The essentials: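 Competitive equilibrium binding; reporter Bocillin-FL. PBP + inhibitor (titration) pre-incubated → Bocillin-FL, 15 min → gel filtration → fluorescence. EC50 from Hill fit of fraction bound vs [inhibitor].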
Chain of A. baumannii PBP2 (D0C8Z9 whole entry): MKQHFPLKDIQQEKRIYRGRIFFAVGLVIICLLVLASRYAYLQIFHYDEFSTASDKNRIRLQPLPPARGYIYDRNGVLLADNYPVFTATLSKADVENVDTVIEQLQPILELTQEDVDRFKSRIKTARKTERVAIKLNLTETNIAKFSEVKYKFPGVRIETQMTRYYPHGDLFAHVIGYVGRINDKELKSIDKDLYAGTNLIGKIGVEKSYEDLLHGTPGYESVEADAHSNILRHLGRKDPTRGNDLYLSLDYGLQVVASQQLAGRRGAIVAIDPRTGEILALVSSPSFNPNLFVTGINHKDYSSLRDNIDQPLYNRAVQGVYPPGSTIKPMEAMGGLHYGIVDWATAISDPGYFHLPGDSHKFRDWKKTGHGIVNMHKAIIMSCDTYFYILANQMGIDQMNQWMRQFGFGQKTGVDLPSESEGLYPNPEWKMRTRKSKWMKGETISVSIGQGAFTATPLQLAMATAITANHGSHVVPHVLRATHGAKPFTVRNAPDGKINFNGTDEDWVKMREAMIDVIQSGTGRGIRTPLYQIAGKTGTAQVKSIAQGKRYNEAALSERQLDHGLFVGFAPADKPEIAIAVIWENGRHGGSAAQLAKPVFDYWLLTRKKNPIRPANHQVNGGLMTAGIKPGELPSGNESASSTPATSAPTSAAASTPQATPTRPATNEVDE
(SEC sorts molecules by how far they enter the pores of the column.)

The subject of another assay is P. aeruginosa ATCC 27853. Briefly: microbe, parasite or virus in culture. The class given is cell-based. Particulars: Pseudomonas aeruginosa, ATCC27853, read-out: Minimum inhibitory concentration, P. aeruginosa ATCC 27853.
The next assay concerns P. aeruginosa CDC-0095. Description: microbe, parasite or virus in culture. The class given is cell-based. The settings on record: Pseudomonas aeruginosa, CDC0095, read-out: Minimum inhibitory concentration, P. aeruginosa CDC-0095.
For another assay, the system named is A. baumannii CDC-0036. Description: microbe, parasite or virus in culture. The settings on record: Acinetobacter baumannii. It counts as cell-based.
Another assay has as its system P. aeruginosa CDC-0110. Description: microbe, parasite or virus in culture. The class given is cell-based. The settings on record: Pseudomonas aeruginosa, CDC0110, read-out: Minimum inhibitory concentration, P. aeruginosa CDC-0110.
Setting [1] is: CDC0036, read-out: MIC, A. baumannii CDC-0036.

As for `O=C(O)c1c(F)ccc2c1OB(O)[C@@H](NC(=O)[C@H](NC(=O)N1CCN(Cc3ccc(O)c(O)c3Cl)C(=O)C1=O)c1ccc(P(=O)(O)O)c(F)c1F)C2` [Example 166, (R)-3-((R)-2-(4-(2-chloro-3,4-dihydroxybenzyl)-2,3-dioxopiperazine-1-carboxamido)-2-(2,3-difluoro-4-phosphonophenyl)acetamido)-7-fluoro-2-hydroxy-3,4-dihydro-2H-benzo[e][1,2]oxaborinine-8-carboxylic acid], the concentration giving a half-maximal response (EC50) – broadly, the midpoint of the concentration-response curve – on A. baumannii PBP2 is 10 to 50 µM. In addition, the MIC in the assay with P. aeruginosa ATCC 27853, with P. aeruginosa CDC-0095, with A. baumannii CDC-0036 (setting [1]) and with P. aeruginosa CDC-0110 was < 1 µg/mL throughout.

On to `O=C(O)c1c(F)ccc2c1OB(O)[C@@H](NC(=O)[C@H](NC(=O)N1CCN(C3CCN(C(=O)c4cc(O)cc(O)c4)CC3)C1=O)c1cc(F)c(O)c(O)c1Cl)C2` (single isomer, unassigned) [Example 442], for which the concentration for a half-maximal effect (EC50) at A. baumannii PBP2 is < 10 µM. Also, the MIC in the assay with P. aeruginosa ATCC 27853, in the assay with P. aeruginosa CDC-0095, in the assay with A. baumannii CDC-0036 (setting [1]) and in the assay with P. aeruginosa CDC-0110 was < 1 µg/mL throughout.

For `O=C(O)c1c(F)ccc2c1OB(O)[C@@H](NC(=O)[C@H](NC(=O)N1CCN(C3CCN(C(=O)Nc4cccc(O)c4F)CC3)C1=O)c1cc(F)c(O)c(O)c1Cl)C2` (single isomer, unassigned) [Example 446], at A. baumannii PBP2, the concentration giving a half-maximal response (EC50) is < 10 µM. For the same molecule, the MIC in the assay with P. aeruginosa ATCC 27853, in the assay on P. aeruginosa CDC-0095, with A. baumannii CDC-0036 (setting [1]) and in the assay with P. aeruginosa CDC-0110 was < 1 µg/mL in each case.

With `O=C(O)c1c(F)ccc2c1OB(O)[C@@H](NC(=O)[C@H](NC(=O)N1CCN(C3CCN(C(=O)Nc4ccc(O)cc4)CC3)C(=O)C1=O)c1cc(F)c(O)c(O)c1Cl)C2` (single isomer, unassigned) [Example 426], the EC50 on A. baumannii PBP2 is 10 to 50 µM. Further, the MIC in the assay on P. aeruginosa ATCC 27853 was 2 to 4 µg/mL (≈ 2.5 to 4.99 µM); in the assay on P. aeruginosa CDC-0095, 2 to 4 µg/mL (≈ 2.5 to 4.99 µM); in the assay with A. baumannii CDC-0036 (setting [1]), 8 to 16 µg/mL (≈ 9.99 to 20 µM); with P. aeruginosa CDC-0110, < 1 µg/mL.

Consider `O=C(O)c1c(F)ccc2c1OB(O)[C@@H](NC(=O)[C@H](NC(=O)N1CCN(C3CCN(C(=O)Nc4cccc(O)c4Cl)CC3)C1=O)c1cc(F)c(O)c(O)c1Cl)C2` [Example 447, (R)-3-((R)-2-(3-(1-((2-chloro-3-hydroxyphenyl)carbamoyl)piperidin-4-yl)-2-oxoimidazolidine-1-carboxamido)-2-(2-chloro-5-fluoro-3,4-dihydroxyphenyl)acetamido)-7-fluoro-2-hydroxy-3,4-dihydro-2H-benzo[e][1,2]oxaborinine-8-carboxylic acid], for which the 50% effective concentration (EC50) on A. baumannii PBP2 is < 10 µM. Also, the MIC in the assay on P. aeruginosa ATCC 27853, in the assay on P. aeruginosa CDC-0095, in the assay with A. baumannii CDC-0036 (setting [1]) and with P. aeruginosa CDC-0110 was < 1 µg/mL each time.

Regarding `O=C(O)c1c(F)ccc2c1OB(O)[C@@H](NC(=O)[C@H](NC(=O)N1CCN(C3CCN(C(=O)Nc4c(F)ccc(O)c4Cl)CC3)C1=O)c1cc(F)c(O)c(O)c1Cl)C2` (single isomer, unassigned) [Example 455], the concentration for a half-maximal effect (EC50) at A. baumannii PBP2 is < 10 µM. Moreover, the MIC with P. aeruginosa ATCC 27853, in the assay on P. aeruginosa CDC-0095, with A. baumannii CDC-0036 (setting [1]) and in the assay with P. aeruginosa CDC-0110 was < 1 µg/mL in each case.

Take `O=C(O)c1c(F)ccc2c1OB(O)[C@@H](NC(=O)C(NC(=O)N1CCN(C3CCN(C(=O)Nc4ccc(F)c(O)c4F)CC3)C(=O)C1=O)c1cc(F)c(O)c(O)c1Cl)C2` (stereo partly drawn) [Example 486, (3R)-3-(2-(2-chloro-5-fluoro-3,4-dihydroxyphenyl)-2-(4-(1-((2,4-difluoro-3-hydroxyphenyl)carbamoyl)piperidin-4-yl)-2,3-dioxopiperazine-1-carboxamido)acetamido)-7-fluoro-2-hydroxy-3,4-dihydro-2H-benzo[e][1,2]oxaborinine-8-carboxylic acid]: the EC50 at A. baumannii PBP2 was < 10 µM. The MIC with P. aeruginosa ATCC 27853 is 2 to 4 µg/mL (≈ 2.39 to 4.78 µM); with P. aeruginosa CDC-0095, < 1 µg/mL; in the assay with A. baumannii CDC-0036 (CDC0036, read-out: Minimum inhibitory concentration (MIC), A. baumannii CDC-0036), < 1 µg/mL; with P. aeruginosa CDC-0110, < 1 µg/mL.

Turning to `O=C(O)c1c(F)ccc2c1OB(O)[C@@H](NC(=O)[C@H](NC(=O)N1CCN(C3CCN(C(=O)Nc4cccc(O)c4)CC3)C1=O)c1cc(F)c(O)c(O)c1Cl)C2` [Example 445, (R)-3-((R)-2-(2-chloro-5-fluoro-3,4-dihydroxyphenyl)-2-(3-(1-((3-hydroxyphenyl)carbamoyl)piperidin-4-yl)-2-oxoimidazolidine-1-carboxamido)acetamido)-7-fluoro-2-hydroxy-3,4-dihydro-2H-benzo[e][1,2]oxaborinine-8-carboxylic acid], the EC50 at A. baumannii PBP2 is < 10 µM. Further, the MIC with P. aeruginosa ATCC 27853, in the assay on P. aeruginosa CDC-0095, in the assay on A. baumannii CDC-0036 (setting [1]) and with P. aeruginosa CDC-0110 was < 1 µg/mL each time.

As for `O=C(O)c1c(F)ccc2c1OB(O)[C@@H](NC(=O)[C@H](NC(=O)N1CCN(Cc3ccc(O)c(O)c3Cl)C(=O)C1=O)c1ccc(P(=O)(O)O)cc1)C2` (single isomer, unassigned) [Example 160], the EC50 on A. baumannii PBP2 was < 10 µM. For the same molecule, the MIC in the assay with P. aeruginosa ATCC 27853, in the assay with P. aeruginosa CDC-0095, with A. baumannii CDC-0036 (setting [1]) and with P. aeruginosa CDC-0110 was < 1 µg/mL throughout.

`O=C(O)c1c(F)ccc2c1OB(O)[C@@H](NC(=O)[C@H](NC(=O)N1CCN(C3CCN(C(=O)c4ccncc4)CC3)C1=O)c1cc(F)c(O)c(O)c1Cl)C2` [Example 461, (R)-3-((R)-2-(2-chloro-5-fluoro-3,4-dihydroxyphenyl)-2-(3-(1-isonicotinoylpiperidin-4-yl)-2-oxoimidazolidine-1-carboxamido)acetamido)-7-fluoro-2-hydroxy-3,4-dihydro-2H-benzo[e][1,2]oxaborinine-8-carboxylic acid] returned a concentration giving a half-maximal response (EC50) on A. baumannii PBP2 of 10 to 50 µM. Besides, the MIC in the assay with P. aeruginosa ATCC 27853, with P. aeruginosa CDC-0095, in the assay with A. baumannii CDC-0036 (setting [1]) and in the assay with P. aeruginosa CDC-0110 was < 1 µg/mL each time.

For the molecule `O=C(O)c1c(F)ccc2c1OB(O)[C@@H](NC(=O)[C@H](NC(=O)N1CCN(C3CCN(C(=O)c4cc(O)cc(F)c4)CC3)C1=O)c1cc(F)c(O)c(O)c1Cl)C2` (single isomer, unassigned) [Example 436], the half-maximal effective concentration (EC50) on A. baumannii PBP2 was < 10 µM. The MIC in the assay on P. aeruginosa ATCC 27853, in the assay with P. aeruginosa CDC-0095, in the assay with A. baumannii CDC-0036 (setting [1]) and in the assay on P. aeruginosa CDC-0110 was < 1 µg/mL each time.

Take `O=C(O)c1c(F)ccc2c1OB(O)[C@@H](NC(=O)[C@H](NC(=O)N1CCN(C3CCN(C(=O)c4ccc(F)c(O)c4Cl)CC3)C1=O)c1cc(F)c(O)c(O)c1Cl)C2` [Example 438, (R)-3-((R)-2-(3-(1-(2-chloro-4-fluoro-3-hydroxybenzoyl)piperidin-4-yl)-2-oxoimidazolidine-1-carboxamido)-2-(2-chloro-5-fluoro-3,4-dihydroxyphenyl)acetamido)-7-fluoro-2-hydroxy-3,4-dihydro-2H-benzo[e][1,2]oxaborinine-8-carboxylic acid]: the EC50 on A. baumannii PBP2 was < 10 µM. Also, the MIC in the assay on P. aeruginosa ATCC 27853, with P. aeruginosa CDC-0095, in the assay with A. baumannii CDC-0036 (setting [1]) and with P. aeruginosa CDC-0110 was < 1 µg/mL throughout.

On to `O=C(O)c1c(F)ccc2c1OB(O)[C@@H](NC(=O)C(NC(=O)N1CCN(C3CCN(S(=O)(=O)Cc4cccc(O)c4)CC3)C(=O)C1=O)c1cc(F)c(O)c(O)c1Cl)C2` (stereo partly drawn) [Example 485, (3R)-3-(2-(2-chloro-5-fluoro-3,4-dihydroxyphenyl)-2-(4-(1-((3-hydroxybenzyl)sulfonyl)piperidin-4-yl)-2,3-dioxopiperazine-1-carboxamido)acetamido)-7-fluoro-2-hydroxy-3,4-dihydro-2H-benzo[e][1,2]oxaborinine-8-carboxylic acid], for which, at A. baumannii PBP2, the half-maximal effective concentration (EC50) is < 10 µM. The MIC in the assay on P. aeruginosa ATCC 27853 is 2 to 4 µg/mL (≈ 2.39 to 4.78 µM); in the assay with P. aeruginosa CDC-0095, < 1 µg/mL; in the assay on A. baumannii CDC-0036 (setting [1]), < 1 µg/mL; in the assay with P. aeruginosa CDC-0110 it was < 1 µg/mL.

As to `O=C(O)c1c(F)ccc2c1OB(O)[C@@H](NC(=O)[C@H](NC(=O)N1CCN(C3CCN(C(=O)c4cc(O)c(F)c(O)c4F)CC3)C1=O)c1cc(F)c(O)c(O)c1Cl)C2` (single isomer, unassigned) [Example 444], the EC50 at A. baumannii PBP2 is < 10 µM. The MIC in the assay with P. aeruginosa ATCC 27853, in the assay with P. aeruginosa CDC-0095, in the assay with A. baumannii CDC-0036 (setting [1]) and in the assay with P. aeruginosa CDC-0110 was < 1 µg/mL throughout.

Take `O=C(O)c1c(F)ccc2c1OB(O)[C@@H](NC(=O)[C@H](NC(=O)N1CCN(C3CCN(C(=O)c4cc(F)c(F)c(O)c4F)CC3)C1=O)c1cc(F)c(O)c(O)c1Cl)C2` (single isomer, unassigned) [Example 441]: the concentration for a half-maximal effect (EC50) at A. baumannii PBP2 was < 10 µM. Moreover, the MIC in the assay on P. aeruginosa ATCC 27853 was 2 to 4 µg/mL (≈ 2.46 to 4.93 µM); with P. aeruginosa CDC-0095, < 1 µg/mL; with A. baumannii CDC-0036 (setting [1]) it was < 1 µg/mL; in the assay with P. aeruginosa CDC-0110, < 1 µg/mL.

For `O=C(O)c1c(F)ccc2c1OB(O)[C@@H](NC(=O)[C@H](NC(=O)N1CCN(C3CCN(C(=O)c4cccnc4)CC3)C1=O)c1cc(F)c(O)c(O)c1Cl)C2` [Example 460, (R)-3-((R)-2-(2-chloro-5-fluoro-3,4-dihydroxyphenyl)-2-(3-(1-nicotinoylpiperidin-4-yl)-2-oxoimidazolidine-1-carboxamido)acetamido)-7-fluoro-2-hydroxy-3,4-dihydro-2H-benzo[e][1,2]oxaborinine-8-carboxylic acid], the 50% effective concentration (EC50) on A. baumannii PBP2 fell in the range of 10 to 50 µM. The MIC in the assay with P. aeruginosa ATCC 27853, with P. aeruginosa CDC-0095, with A. baumannii CDC-0036 (setting [1]) and in the assay with P. aeruginosa CDC-0110 was < 1 µg/mL in each case.

As for `O=C(O)c1c(F)ccc2c1OB(O)[C@@H](NC(=O)[C@H](NC(=O)N1CCN(Cc3ccc(O)c(O)c3Cl)C(=O)C1=O)c1cccc(P(=O)(O)O)c1)C2` (single isomer, unassigned) [Example 163], on A. baumannii PBP2, the EC50 fell in the range of 10 to 50 µM. For the same molecule, the MIC in the assay on P. aeruginosa ATCC 27853, with P. aeruginosa CDC-0095, with A. baumannii CDC-0036 (setting [1]) and with P. aeruginosa CDC-0110 was < 1 µg/mL in each case.

For the origin of these results see patent US20240270762A1, “PENICILLIN-BINDING PROTEIN INHIBITORS” (priority 2021, published 2024).
